The source of these data is the NIST ThermoML archive (doi:10.1021/acs.jced.5b00880).

For this data set the following is noted: Crystal; DTA.

Molecules are shown by their SMILES. ± gives the expanded uncertainty stated by the source.

Regarding `O=C(O)CCCCC(=O)O` [1,6-hexanedioic acid], the Normal melting temperature stood at 152.4 ± 1.1 °C.
